From patent US20090074926A1, “Preservation of acidic beverages” (PURAC BIOCHEM B.V., priority 2007, published 2009)
Read-outs that look alike come from different tables or passages of the source.

What was measured:
Assay type in all cases: cell-based
[1] = system: a collection of yeasts; conditions: pH 3.5
Protocol: Cultures were grown in GPY-broth that contained per liter demineralised-water: 40 g glucose, 5 g peptone and 5 g yeast extract, the pH of the medium to 3.5 with 2 N HCl. Cultures were grown in screw-capped tubes for at least 48 hours at 25° C. Pichia membranifaciens MUCL 27794, CBS 8427 and CBS 5567, Rhodotorula glutinis CBS 2367, Rhodotorula mucilaginosa CBS 8054 and CBS 2401 and Zygosaccharomyces bailii MUCL 27812 were cultured in shake flasks
The inhibition tests were carried out in sterile 96-well microtiter plates. Increasing amounts (0 to 100 μL in 10 steps of 10 μL) of a sterile stock solution of each compound were transferred to sterile microtiter plates. Next 100 μL of filter sterilized double strength GPY-broth was added and the volume of each well was adjusted to 200 μL with sterile demineralized-water. Plates were inoculated with 2 μL of two days old cultures and incubated for 96 hours at 25° C. Growth was quantified by measuring the optical density at 595 nm in a microplate reader. All the experiments were carried out in duplicate.

[2] = system: Saccharomyces cerevisiae; assay: Screening of combinations of three ingredients, outgrowth in GPY-broth pH 3.5
Protocol: These combination tests were also carried out in sterile 96-well microtiter plates. Sterile GPY-broth was prepared with increasing quantities of inhibitors. For the first dimension the concentrations of the first inhibitor was presented in 8 equal concentration steps. For the second dimension a fixed ratio of two other inhibitors was chosen. This mixture was presented in 8 equal concentration steps resulting in 64 different media. […] of each medium was transferred to a panel of a sterile 96-well microtiter plate. Completed well plates were stored at 4° C. until further use. Plates were inoculated with 2 μL of two days old cultures and incubated for 96 hours at 25° C. Growth was quantified by measuring the optical density at 595 nm in a microplate reader and expressed as a percentage of the growth in the control, which contained no inhibitor. All the experiments were carried out in duplicate.

[3] = system: Schizosaccharomyces pombe; assay: Screening of combinations of two inhibitors, outgrowth in GPY-broth pH 3.5
Protocol: These combination tests were carried out in sterile 96-well microtiter plates. Sterile GPY-broth was prepared with increasing quantities of two different inhibitors. The concentrations of each inhibitor were presented in 8 equal concentration steps that ranged from 0 to 1-2 times the MIC value of a particular yeast for a particular inhibitor resulting in 64 different media. […] of each medium was transferred to a panel of a sterile 96-well microtiter plate. Completed well plates were stored at 4° C. until further use.
Plates were inoculated with 2 μL of two days old cultures and incubated for 96 hours at 25° C. Growth was quantified by measuring the optical density at 595 nm in a microplate reader and expressed as a percentage of the growth in the control, which contained no inhibitor. All the experiments were carried out in duplicate.

**Q.** With `O=C(O)C=Cc1ccccc1` [Cinnamic acid, cinnamic acid] as the molecule, how does the “Comparison of inhibitory potency (in words)” value ([1]; MIC values of a number of yeasts) read?
**A.** more effective than sorbic acid

**Q.** And the “MICavg (Average Minimal Inhibitory Concentration)” value ([1]; collection of yeasts)?
**A.** 0.009 ± 0.007 % w/v

**Q.** And the “MICmax (Maximum MIC)” value ([1]; collection of yeasts)?
**A.** 0.03 % w/v

**Q.** And the MICmax/MICavg ([1]; collection of yeasts)?
**A.** 3.0

**Q.** And the “Outgrowth (% of outgrowth at zero concentration inhibitor)” value ([2]; MCE 8060-ε-polylysine mixture (ratio 18.9) 0, cinnamic acid 0.002 (% w/v))?
**A.** 76%

**Q.** And the “Outgrowth (% of outgrowth at zero concentration inhibitor)” value ([2]; MCE 8060-ε-polylysine mixture (ratio 18.9) 0, cinnamic acid 0.004 (% w/v))?
**A.** 44%

**Q.** And the “Outgrowth (% of outgrowth at zero concentration inhibitor)” value ([2]; MCE 8060-ε-polylysine mixture (ratio 18.9) 0, cinnamic acid 0.006 (% w/v))?
**A.** 1%

**Q.** And the “Outgrowth (% of outgrowth at zero concentration inhibitor)” value ([2]; MCE 8060-ε-polylysine mixture (ratio 18.9) 0, cinnamic acid 0.008 (% w/v))?
**A.** 0%

**Q.** And the “Outgrowth (% of outgrowth at zero concentration inhibitor)” value ([2]; MCE 8060-ε-polylysine mixture (ratio 18.9) 0, cinnamic acid 0.01 (% w/v))?
**A.** 2%

**Q.** What about the “Outgrowth (% of outgrowth at zero concentration inhibitor)” value ([2]; MCE 8060-ε-polylysine mixture (ratio 18.9) 0, cinnamic acid 0.012 (% w/v)) of the same molecule?
**A.** 1%

**Q.** What about the “Outgrowth (% of outgrowth at zero concentration inhibitor)” value ([2]; MCE 8060-ε-polylysine mixture (ratio 18.9) 0, cinnamic acid 0.014 (% w/v)) of the same molecule?
**A.** 0%

**Q.** With `C/C=C/C=C/C(=O)[O-].[K+]` [Potassium sorbate, potassium sorbate] as the molecule, how does the “Outgrowth (% of outgrowth at zero concentration inhibitor)” value ([3]; ε-polylysine 0, potassium sorbate 0.007 (% w/v)) read?
**A.** 81%

**Q.** What about the “Outgrowth (% of outgrowth at zero concentration inhibitor)” value ([3]; ε-polylysine 0, potassium sorbate 0.014 (% w/v)) of the same molecule?
**A.** 69%

**Q.** And the “Outgrowth (% of outgrowth at zero concentration inhibitor)” value ([3]; ε-polylysine 0, potassium sorbate 0.021 (% w/v))?
**A.** 56%

**Q.** And the “Outgrowth (% of outgrowth at zero concentration inhibitor)” value ([3]; ε-polylysine 0, potassium sorbate 0.028 (% w/v))?
**A.** 44%

**Q.** And the “Outgrowth (% of outgrowth at zero concentration inhibitor)” value ([3]; ε-polylysine 0, potassium sorbate 0.035 (% w/v))?
**A.** 30%

**Q.** What about the “Outgrowth (% of outgrowth at zero concentration inhibitor)” value ([3]; ε-polylysine 0, potassium sorbate 0.042 (% w/v)) of the same molecule?
**A.** 20%

**Q.** And the “Outgrowth (% of outgrowth at zero concentration inhibitor)” value ([3]; ε-polylysine 0, potassium sorbate 0.049 (% w/v))?
**A.** 7%

**Q.** For `C/C=C/C=C/C(=O)O` [Sorbic acid], which “MICavg (Average Minimal Inhibitory Concentration)” value [1] is on record?
**A.** 0.030 ± 0.020 % w/v

**Q.** What about the “MICmax (Maximum MIC)” value [1] of the same molecule?
**A.** 0.07 % w/v

**Q.** And the MICmax/MICavg [1]?
**A.** 2.5
